Experimental data as given in PubChem BioAssay AID1788 (Vanderbilt High Throughput Screening Facility, 2009).
Calls of active or inactive are those of the source. How the calls were made is not given here.

How the values were obtained:
Experiment in all cases: PubChem AID 1788
Glutamate NMDA (rat) = conditions: MDS Pharma lead profiling panel, radioligand binding, at 10 µM, stronger effect = higher value
Adenosine A1 (human) = conditions: MDS Pharma lead profiling panel, radioligand binding, at 10 µM, stronger effect = higher value
Transporter, GABA (rat) = conditions: MDS Pharma lead profiling panel, radioligand binding, at 10 µM, stronger effect = higher value
Thyroid Hormone (rat) = conditions: MDS Pharma lead profiling panel, radioligand binding, at 10 µM, stronger effect = higher value
[1] = target: Potassium Channel K ATP (hamster) (UniProt P49658); conditions: MDS Pharma lead profiling panel, radioligand binding, at 10 µM, stronger effect = higher value
Potassium Channel K ATP (hamster), sequence (P49658 whole entry, looked up): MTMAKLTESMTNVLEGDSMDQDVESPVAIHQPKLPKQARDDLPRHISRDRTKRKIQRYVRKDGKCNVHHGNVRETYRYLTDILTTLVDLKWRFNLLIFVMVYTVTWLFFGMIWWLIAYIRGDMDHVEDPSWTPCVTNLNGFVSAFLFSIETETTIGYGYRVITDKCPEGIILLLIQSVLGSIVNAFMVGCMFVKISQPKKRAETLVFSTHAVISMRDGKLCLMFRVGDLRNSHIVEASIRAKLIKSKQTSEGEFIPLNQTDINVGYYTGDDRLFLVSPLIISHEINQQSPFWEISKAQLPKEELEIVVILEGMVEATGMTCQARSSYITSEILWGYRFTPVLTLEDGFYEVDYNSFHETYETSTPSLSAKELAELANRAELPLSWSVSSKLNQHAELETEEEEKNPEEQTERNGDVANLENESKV

Sigma s1 (human) = conditions: MDS Pharma lead profiling panel, radioligand binding, at 10 µM, stronger effect = higher value
Sigma s2 (rat) = conditions: MDS Pharma lead profiling panel, radioligand binding, at 10 µM, stronger effect = higher value
[2] = test system: Vesicular inhibitory amino acid transporter (Rattus norvegicus) + Pro-epidermal growth factor (Homo sapiens) + Acetylcholine receptor subunit alpha (Homo sapiens) + Estrogen receptor (Homo sapiens) + Glucocorticoid receptor (Homo sapiens) + Sodium channel protein type 1 subunit alpha (Rattus norvegicus) + Beta-2 adrenergic receptor (Homo sapiens) + Muscarinic acetylcholine receptor M2 (Homo sapiens) + Beta-1 adrenergic receptor (Homo sapiens) + 5-hydroxytryptamine receptor 1A (Homo sapiens) + Alpha-2A adrenergic receptor (Homo sapiens) + Muscarinic acetylcholine receptor M1 (Homo sapiens) + Interleukin-1 receptor type 1 (Mus musculus) + D(2) dopamine receptor (Homo sapiens) + Androgen receptor (Rattus norvegicus) + Gamma-aminobutyric acid receptor subunit gamma-2 (Rattus norvegicus) + Muscarinic acetylcholine receptor M3 (Homo sapiens) + D(1A) dopamine receptor (Homo sapiens) + D(4) dopamine receptor (Homo sapiens) + Glutamate receptor ionotropic, kainate 1 (Rattus norvegicus) + Sodium-dependent noradrenaline transporter (Homo sapiens) + Endothelin receptor type B (Homo sapiens) + Alpha-1D adrenergic receptor (Homo sapiens) + Endothelin-1 receptor (Homo sapiens) + Substance-P receptor (Homo sapiens) + Neuropeptide Y receptor type 1 (Homo sapiens) + Adenosine receptor A2a (Homo sapiens) + B2 bradykinin receptor (Homo sapiens) + Adenosine receptor A1 (Homo sapiens) + Sodium-dependent serotonin transporter (Homo sapiens) + Neuronal acetylcholine receptor subunit alpha-3 (Homo …; conditions: MDS Pharma lead profiling panel, radioligand binding; at 10 µM; stronger effect = higher value
Melatonin MT1 (human) = conditions: MDS Pharma lead profiling panel, radioligand binding, at 10 µM, stronger effect = higher value
[3] = test system: Calcium channel L-type (rat); conditions: MDS Pharma lead profiling panel, radioligand binding, dihydropyridine site, at 10 µM, stronger effect = higher value
[4] = target: D(3) dopamine receptor (Homo sapiens) (UniProt P35462); conditions: MDS Pharma lead profiling panel, radioligand binding; Dopamine D3 (human); at 10 µM; stronger effect = higher value
D(3) dopamine receptor (Homo sapiens), sequence (P35462 whole entry, looked up): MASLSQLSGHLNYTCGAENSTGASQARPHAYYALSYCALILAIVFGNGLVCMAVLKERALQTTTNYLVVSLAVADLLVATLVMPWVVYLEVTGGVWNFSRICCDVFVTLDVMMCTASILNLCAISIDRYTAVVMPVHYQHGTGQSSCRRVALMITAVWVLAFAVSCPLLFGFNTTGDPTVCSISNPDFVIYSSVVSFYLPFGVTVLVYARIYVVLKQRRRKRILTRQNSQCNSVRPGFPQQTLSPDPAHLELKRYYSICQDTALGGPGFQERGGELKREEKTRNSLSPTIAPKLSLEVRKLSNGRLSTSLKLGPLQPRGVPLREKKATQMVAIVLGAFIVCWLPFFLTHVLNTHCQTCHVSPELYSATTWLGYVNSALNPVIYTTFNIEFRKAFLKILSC

[5] = test system: Calcium channel N-type (rat); conditions: MDS Pharma lead profiling panel, radioligand binding, at 10 µM, stronger effect = higher value
Adrenergic a1B (rat) = conditions: MDS Pharma lead profiling panel, radioligand binding, at 10 µM, stronger effect = higher value
[6] = target: Kappa-type opioid receptor (Homo sapiens) (UniProt P41145); conditions: MDS Pharma lead profiling panel, radioligand binding; Opiate k (OP2, KOP) (human); at 10 µM; stronger effect = higher value
Kappa-type opioid receptor (Homo sapiens), sequence (P41145 whole entry, looked up): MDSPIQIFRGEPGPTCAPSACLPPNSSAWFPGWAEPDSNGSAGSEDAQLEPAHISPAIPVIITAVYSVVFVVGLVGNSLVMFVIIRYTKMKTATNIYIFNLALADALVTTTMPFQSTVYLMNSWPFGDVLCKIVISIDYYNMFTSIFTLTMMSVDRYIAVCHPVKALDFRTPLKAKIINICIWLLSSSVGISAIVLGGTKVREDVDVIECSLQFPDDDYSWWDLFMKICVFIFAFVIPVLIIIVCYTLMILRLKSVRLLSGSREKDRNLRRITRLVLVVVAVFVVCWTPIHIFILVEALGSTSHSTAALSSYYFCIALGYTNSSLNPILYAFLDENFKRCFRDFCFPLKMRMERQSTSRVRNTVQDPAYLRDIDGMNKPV

[7] = target: D(1A) dopamine receptor (Homo sapiens) (UniProt P21728); conditions: MDS Pharma lead profiling panel, radioligand binding; Dopamine D1 (human); at 10 µM; stronger effect = higher value
D(1A) dopamine receptor (Homo sapiens), sequence (P21728 whole entry, looked up): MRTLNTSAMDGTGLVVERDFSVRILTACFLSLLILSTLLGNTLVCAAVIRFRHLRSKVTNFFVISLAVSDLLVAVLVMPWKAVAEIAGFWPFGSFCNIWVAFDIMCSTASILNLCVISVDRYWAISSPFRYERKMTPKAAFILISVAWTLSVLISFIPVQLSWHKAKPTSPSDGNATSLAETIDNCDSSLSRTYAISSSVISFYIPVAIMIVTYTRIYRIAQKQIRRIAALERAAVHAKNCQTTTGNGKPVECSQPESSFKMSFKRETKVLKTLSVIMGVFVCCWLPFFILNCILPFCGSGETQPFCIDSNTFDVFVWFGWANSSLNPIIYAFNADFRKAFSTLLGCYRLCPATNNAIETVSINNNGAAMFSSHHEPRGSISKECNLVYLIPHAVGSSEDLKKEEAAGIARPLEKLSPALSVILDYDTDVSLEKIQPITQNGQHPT

Histamine H3 (human) = conditions: MDS Pharma lead profiling panel, radioligand binding, at 10 µM, stronger effect = higher value
[8] = test system: Transporter, Norepinephrine (NET) (human); conditions: MDS Pharma lead profiling panel, radioligand binding, at 10 µM, stronger effect = higher value
Histamine H2 (human) = conditions: MDS Pharma lead profiling panel, radioligand binding, at 10 µM, stronger effect = higher value
[9] = target: Neuropeptide Y receptor type 2 (Homo sapiens) (UniProt P49146); conditions: MDS Pharma lead profiling panel, radioligand binding; Neuropeptide Y Y2 (human); at 10 µM; stronger effect = higher value
Neuropeptide Y receptor type 2 (Homo sapiens), sequence (P49146 whole entry, looked up): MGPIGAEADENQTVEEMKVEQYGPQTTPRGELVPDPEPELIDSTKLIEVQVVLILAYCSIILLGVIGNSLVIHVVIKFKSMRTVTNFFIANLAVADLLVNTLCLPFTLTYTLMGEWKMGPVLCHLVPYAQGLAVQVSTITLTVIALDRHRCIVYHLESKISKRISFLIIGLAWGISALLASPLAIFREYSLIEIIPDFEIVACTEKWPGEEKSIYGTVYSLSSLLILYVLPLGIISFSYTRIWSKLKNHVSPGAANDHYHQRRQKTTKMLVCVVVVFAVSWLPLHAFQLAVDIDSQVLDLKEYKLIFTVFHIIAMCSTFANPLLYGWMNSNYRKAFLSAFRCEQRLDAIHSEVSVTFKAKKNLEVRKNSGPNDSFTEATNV

[10] = test system: Transporter, Serotonin (5-Hydroxytryptamine) (SERT) (human); conditions: MDS Pharma lead profiling panel, radioligand binding, at 10 µM, stronger effect = higher value
Dopamine D4.2 (human) = conditions: MDS Pharma lead profiling panel, radioligand binding, at 10 µM, stronger effect = higher value
Bradykinin B2 (human) = conditions: MDS Pharma lead profiling panel, radioligand binding, at 10 µM, stronger effect = higher value
Endothelin ETB (human) = conditions: MDS Pharma lead profiling panel, radioligand binding, at 10 µM, stronger effect = higher value
[11] = target: Mu-type opioid receptor (Homo sapiens) (UniProt P35372); conditions: MDS Pharma lead profiling panel, radioligand binding; Opiate m (OP3, MOP) (human); at 10 µM; stronger effect = higher value
Mu-type opioid receptor (Homo sapiens), sequence (P35372 whole entry, looked up): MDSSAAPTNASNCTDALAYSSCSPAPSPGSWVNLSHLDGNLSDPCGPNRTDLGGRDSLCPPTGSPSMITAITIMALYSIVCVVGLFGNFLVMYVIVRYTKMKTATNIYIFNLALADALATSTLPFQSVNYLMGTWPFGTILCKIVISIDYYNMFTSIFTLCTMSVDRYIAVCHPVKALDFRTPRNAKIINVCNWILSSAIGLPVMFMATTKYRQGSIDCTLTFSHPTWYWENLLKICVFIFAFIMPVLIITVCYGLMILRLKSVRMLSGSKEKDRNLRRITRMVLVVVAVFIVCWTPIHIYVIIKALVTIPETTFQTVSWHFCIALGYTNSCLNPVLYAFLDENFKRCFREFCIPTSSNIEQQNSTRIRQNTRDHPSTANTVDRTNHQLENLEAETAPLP

[12] = test system: Nicotinic Acetylcholine (human); conditions: MDS Pharma lead profiling panel, radioligand binding, at 10 µM, stronger effect = higher value
[13] = test system: Sodium Channel, Site 2 (rat); conditions: MDS Pharma lead profiling panel, radioligand binding, at 10 µM, stronger effect = higher value
[14] = test system: Serotonin (5-Hydroxytryptamine) 5-HT3 (human); conditions: MDS Pharma lead profiling panel, radioligand binding, at 10 µM, stronger effect = higher value

Measured: inhibition

CCOC(=O)N1CCC(NCCNC(=O)c2ccccc2C)CC1
inactive: Glutamate NMDA (rat); Glycine site -11% | Glutamate NMDA (rat); Phencyclidine site 7% | Glutamate NMDA (rat); agonism site 13% | Adenosine A1 (human) -4% | Transporter, GABA (rat) 3% | Thyroid Hormone (rat) -8% | [1] -9% | Sigma s1 (human) 69% | Sigma s2 (rat) 44% | [2] -8% | Melatonin MT1 (human) 25% | [3] -8% | [4] 48% | [5] 8% | Adrenergic a1B (rat) 20% | [6] -2% | [7] 5% | Histamine H3 (human) 11% | [8] 1% | Histamine H2 (human) 27% | [9] 12% | [10] -5% | Dopamine D4.2 (human) 52% | Bradykinin B2 (human) 9% | Endothelin ETB (human) -4% | [11] -4% | [12] 2% | [13] -7% | [14] 2%
